Measurements reported in patent US20210246115A1 (Bioimics AB, priority 2017, published 2021).
pIC50: −log10 of the molar value. ≈ marks a conversion by molar mass, not a printed value. Counter-ions that a name gives are not always drawn. Like-named read-outs stand apart in the source and are kept apart here.

Key:
[1] = tested on: Escherichia coli (ATCC25922); test: MIC, broth microdilution (CLSI), Escherichia coli; conditions: Escherichia coli, ATCC25922, read-out: E. coli ATCC 25922 MIC, Table XIII
[2] = tested on: Staphylococcus aureus subsp. aureus (ATCC29213); test: MIC, broth microdilution (CLSI), Staphylococcus aureus ATCC29213; format: cell-based; conditions: Staphylococcus aureus
[3] = tested on: E. coli RNase P RNA, M1 RNA; test: Inhibition of bacterial RNase P activity, IC50 determination (cleavage of pATSerUG by M1 RNA); format: biochemical; conditions: NI: No inhibition
[4] = tested on: Staphylococcus aureus (ATCC25923); test: MIC, broth microdilution (CLSI), Staphylococcus aureus ATCC25923; conditions: Staphylococcus aureus, ATCC25923, read-out: S. aureus ATCC 25923 MIC
[5] = ATCC29213, read-out: S. aureus ATCC 29213 MIC, Table XIII
[6] = ATCC29213, Table XIII, read-out: S. aureus ATCC 29213 MIC

| MIC [1] [µg/mL] | MIC [2, 6] [µg/mL] | pIC50 [3] | MIC [4] [µg/mL] | Structure (SMILES) | MIC [2, 5] [µg/mL] |
| --- | --- | --- | --- | --- | --- |
| 64 | 32 | – | – | Cl.Cl.c1ccc2c(c1)c(C(CCNC1CCNCC1)c1ccncc1)cn2C1CC2CCC1C2 (stereo not shown) [Compound 337, N-(3-(1-(bicyclo[2.2.1]heptan-2-yl)-1H-indol-3-yl)-3-(pyridin-4-yl)propyl)piperidin-4-amine hydrochloride salt] | – |
| 8 | 8 | – | – | Cl.Cl.NCCCNCCC(c1cncc2ccccc12)c1cn(C2CCCCC2)c2ccccc12 (stereo not shown) [Compound 369, N1-(3-(1-cyclohexyl-1H-indol-3-yl)-3-(isoquinolin-4-yl)propyl)propane-1,3-diamine hydrochloride] | – |
| 16 | 16 | – | – | Cl.Cl.NCCCNCCCc1cn(C2CCCCC2)c2ccc(Br)cc12 [Compound 359, N1-(3-(5-bromo-1-cyclohexyl-1H-indol-3-yl)propyl)propane-1,3-diamine hydrochloride salt] | – |
| 64 | 32 | – | – | Cl.Cl.c1cncc(C(CCNC2CCNCC2)c2cn(C3CCCCC3)c3ccccc23)c1 (stereo not shown) [Compound 329, N-(3-(1-cyclohexyl-1H-indol-3-yl)-3-(pyridin-3-yl)propyl)piperidin-4-amine hydrochloride salt] | – |
| 64 | 32 | – | – | Cl.Cl.NCCCNCCC(c1cccnc1)c1cn(CC2CCCCC2)c2ccccc12 (stereo not shown) [Compound 321, N1-(3-(1-(cyclohexylmethyl)-1H-indol-3-yl)-3-(pyridin-3-yl)propyl)propane-1,3-diamine hydrochloride salt] | – |
| 32 (≈ 84.5 µM) | 16 (≈ 42.3 µM) | – | – | N#Cc1ccc2c(c1)c(C1CCCC(NCCCN)C1)cn2C1CCCCC1 (stereo not shown) [Compound 389, 3-(3-((3-aminopropyl)amino)cyclohexyl)-1-cyclohexyl-1H-indole-5-carbonitrile] | – |
| > 128 | 64 (≈ 140 µM) | – | – | Cc1cccc(C(CCNCCCN2CCCC2)c2cn(C3CCCCC3)c3ccccc23)c1 (stereo not shown) [Compound 367, 3-(1-cyclohexyl-1H-indol-3-yl)-N-(3-(pyrrolidin-1-yl)propyl)-3-(m-tolyl)propan-1-amine] | – |
| > 128 | 64 | – | – | Cl.Cl.NC1CCC(NCCC(c2cccnc2)c2cn(C3CCCCC3)c3ccccc23)CC1 (stereo not shown) [Compound 330, N1-(3-(1-cyclohexyl-1H-indol-3-yl)-3-(pyridin-3-yl)propyl)cyclohexane-1,4-diamine hydrochloride salt] | – |
| 8 (≈ 19.1 µM) | 16 (≈ 38.1 µM) | – | – | Cc1cccc(C(CCNCC(O)CN)c2cn(C3CCCCC3)c3ccccc23)c1 (stereo not shown) [Compound 386, 1-amino-3-((3-(1-cyclohexyl-1H-indol-3-yl)-3-(m-tolyl)propyl)amino) propan-2-ol] | – |
| > 128 | > 128 | – | – | Cc1cccc(C(CCN(C#N)C2CCC(NC(N)=O)CC2)c2cn(C3CCCCC3)c3ccccc23)c1 [Compound 361, 1-(((1S,4S)-4-(N-(3-(1-cyclohexyl-1H-indol-3-yl)-3-(m-tolyl)propyl)cyanamido)cyclohexyl)urea salt] | – |
| 8 (≈ 18.6 µM) | 8 (≈ 18.6 µM) | – | – | Cc1cccc(C(CCNCC2(CN)CC2)c2cn(C3CCCCC3)c3ccccc23)c1 (stereo not shown) [Compound 390, N-((1-(aminomethyl)cyclopropyl)methyl)-3-(1-cyclohexyl-1H-indol-3-yl)-3-(m-tolyl)propan-1-amine] | – |
| 16 | 32 | – | – | Cl.Cl.NCCCNCCC(c1cn(C2CCCCC2)c2ccccc12)C1CC1 (stereo not shown) [Compound 422, N1-(3-(1-cyclohexyl-1H-indol-3-yl)-3-cyclopropylpropyl) propane-1,3-diamine hydrochloride salt] | – |
| > 128 | 16 (≈ 31.4 µM) | – | – | Cc1cccc(C(CCOC2OC(CO)C(O)C(O)C2O)c2cn(C3CCCCC3)c3ccccc23)c1 (stereo not shown) [Compound 388, 2-(3-(1-cyclohexyl-1H-indol-3-yl)-3-(m-tolyl)propoxy)-6-(hydroxymethyl) tetrahydro-2H-pyran-3,4,5-triol] | – |
| 32 | – | 4.43 | 8 | Cc1cccc(C(CC(=O)NC2CCNCC2)c2cn(CC3CCCCC3)c3ccccc23)c1.Cl (stereo not shown) [Compound 89, 3-(1-(cyclohexylmethyl)-1H-indol-3-yl)-N-(piperidin-4-yl)-3-(m-tolyl)propanamide hydrochloride salt] | – |
| 59 | – | 5.23 | 15 | Cl.NC1CCC(C(=O)N2CCC(c3cn(CC4CCCCC4)c4ccccc34)CC2)CC1 (stereo not shown) [Compound 200, (4-aminocyclohexyl) (4-(1-(cyclohexylmethyl)-1H-indol-3-yl)piperidin-1-yl)methanone hydrochloride salt] | – |
| 8 | – | 4.51 | 4 | N[C@H]1CC[C@H](NCCc2cn(CC3CCCCC3)c3ccc(Br)cc23)CC1 [Compound 197, (1R,4R)-N1-(2-(5-bromo-1-(cyclohexylmethyl)-1H-indol-3-yl)ethyl) cyclohexane-1,4-diamine hydrochloride salt] | – |
| 128 | – | 3.80 | 128 | Cl.N[C@H]1CC[C@H](NC(=O)CCc2cn(CC3CCCCC3)c3ccccc23)CC1 [Compound 116, N-((1r,4r)-4-aminocyclohexyl)-3-(1-(cyclohexylmethyl)-1H-indol-3-yl)propanamide hydrochloride salt] | – |
| 128 | – | 4.03 | 32 | CC(C)C(CC(=O)N[C@H]1CC[C@H](N)CC1)c1cn(CC2CCCCC2)c2ccccc12.Cl (stereo partly drawn) [Compound 131, N-((1R,4R)-4-aminocyclohexyl)-3-(1-(cyclohexylmethyl)-1H-indol-3-yl)-4-methylpentanamide hydrochloride salt] | – |

| Structure (SMILES) | MIC [1] [µg/mL] | MIC [2, 6] [µg/mL] | pIC50 [3] | MIC [4] [µg/mL] | MIC [2, 5] [µg/mL] |
| --- | --- | --- | --- | --- | --- |
| NC1CCC(NCCC(c2cccnc2)c2cn(CC3CCCCC3)c3ccccc23)CC1 (stereo not shown) [Compound 319, N1-(3-(1-(cyclohexylmethyl)-1H-indol-3-yl)-3-(pyridin-3-yl)propyl) cyclohexane-1,4-diamine hydrochloride salt] | 64 | – | – | – | 32 |
| Cc1cccc(C(CCNCCCN)c2cn(CC3CCOCC3)c3ccc(C#N)cc23)c1 (stereo not shown) [Compound 318, 3-(3-((3-aminopropyl)amino)-1-(m-tolyl)propyl)-1-((tetrahydro-2H-pyran-4-yl)methyl)-1H-indole-5-carbonitrile hydrochloride salt] | > 128 | – | – | – | 64 |
| COC(=O)c1ccc2c(c1)c(CNCC1CCNCC1)cn2CC1CCCCC1 [Compound 304, methyl 1-(cyclohexylmethyl)-3-(((piperidin-4-ylmethyl)amino)methyl)-1H-indole-5-carboxylate hydrochloride salt] | > 128 | – | – | – | 64 |
| COc1cccc(C(CCNC2CCNCC2)c2cn(C3CCCCC3)c3ccc(C#N)cc23)c1 (stereo not shown) [Compound 401, 1-cyclohexyl-3-(1-(3-methoxyphenyl)-3-(piperidin-4-ylamino)propyl)-1H-indole-5-carbonitrile hydrochloride salt] | 16 | – | – | – | 16 |
| Cc1cccc(C(CCNC2CCNCC2)c2cn(CC3CCNCC3)c3ccccc23)c1 (stereo not shown) [Compound 315, N-(3-(1-(piperidin-4-ylmethyl)-1H-indol-3-yl)-3-(m-tolyl)propyl) piperichn-4-amine hydrochloride salt] | > 128 | – | – | – | 64 |
| Cc1cccc(C(CCNC2CCC(N)CC2)c2cn(CC3CCOCC3)c3ccc(CN)cc23)c1 (stereo not shown) [Compound 311, N1-(3-(5-(aminomethyl)-1-((tetrahydro-2H-pyran-4-yl)methyl)-1H-indol-3-yl)-3-(m-tolyl)propyl) cyclohexane-1,4-diamine hydrochloride salt] | > 128 | – | – | – | 128 |
| COc1cccc(C(CCNCCCN)c2cn(C3CCCCC3)c3ccc(C#N)cc23)c1 (stereo not shown) [Compound 402, 3-(3-((3-aminopropyl)amino)-1-(3-methoxyphenyl)propyl)-1-cyclohexyl-1H-indole-5-carbonitrile hydrochloride salt] | 16 | – | – | – | 8 |
| Cc1cccc(C(CCNC2CCNCC2)c2cn(CC3CCNCC3)c3ccc(C#N)cc23)c1 (stereo not shown) [Compound 326, 3-(3-(piperidin-4-ylamino)-1-(m-tolyl)propyl)-1-(piperidin-4-ylmethyl)-1H-indole-5-carbonitrile hydrochloride salt] | 128 | – | – | – | 32 |
| Cc1cccc(C(CCNC2CCC(N)CC2)c2cn(CC3CCNCC3)c3ccccc23)c1 (stereo not shown) [Compound 313, N1-(3-(1-(piperidin-4-ylmethyl)-1H-indol-3-yl)-3-(m-tolyl)propyl)cyclohexane-1,4-diamine hydrochloride salt] | > 128 | – | – | – | 16 |
| Cc1cccc(C(CCNCCCN)c2cn(CC3CCNCC3)c3ccccc23)c1 (stereo not shown) [Compound 314, N1-(3-(1-(piperidin-4-ylmethyl)-1H-indol-3-yl)-3-(m-tolyl)propyl)propane-1,3-diamine hydrochloride salt] | > 128 | – | – | – | 16 |
| COc1cccc(C(CCNC2CCC(N)CC2)c2cn(C3CCCCC3)c3ccc(C#N)cc23)c1 (stereo not shown) [Compound 400, 3-(3-(((1s,4s)-4-aminocyclohexyl)amino)-1-(3-methoxyphenyl)propyl)-1-cyclohexyl-1H-indole-5-carbonitrile hydrochloride salt] | 16 | – | – | – | 16 |
| Cc1cccc(C(CCNCC2OC(CO)C(O)C(O)C2O)c2cn(C3CCCCC3)c3ccccc23)c1 (stereo not shown) [Compound 391, 2-(((3-(1-cyclohexyl-1H-indol-3-yl)-3-(m-tolyl)propyl)amino)methyl)-6-(hydroxymethyl) tetrahydro-2H-pyran-3,4,5-triol] | 128 (≈ 245 µM) | – | – | – | 64 (≈ 122 µM) |
| Cc1cccc(C(CCNC2CCNCC2)c2cn(CC3CCOCC3)c3ccc(C#N)cc23)c1 (stereo not shown) [Compound 316, 3-(3-(piperidin-4-ylamino)-1-(m-tolyl)propyl)-1-((tetrahydro-2H-pyran-4-yl)methyl)-1H-indole-5-carbonitrile hydrochloride salt] | 64 | – | – | – | 64 |
